In patent US9452986B2, “6-heteroaryloxy- or 6-aryloxy-quinoline-2-carboxamides and method of use” (AbbVie Inc., priority 2014, dated 2016):

The compounds below were run against recombinant human Nav1.7 (Homo sapiens (Human), UniProt Q15858) (assay: FRET-based membrane potential assay, recombinant human sodium channel Nav1.7). Conditions: HEK293 cells stably expressing recombinant human Nav1.7; veratridine + scorpion venom depolarization; read-out: FRET-Membrane Potential Nav1.7 IC50.
Assay type: cell-based
Summary of the method: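 Channel activation used veratridine at its EC80, set by a dilution curve each experiment, together with Leiurus scorpion venom, added 3 min after compound. Membrane-potential ratio signals from FLIPR Tetra in HEPES-buffered HBSS were fitted to a four-parameter Hill equation for percent inhibition and IC50.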

Sequence of recombinant human Nav1.7 (Q15858 whole entry): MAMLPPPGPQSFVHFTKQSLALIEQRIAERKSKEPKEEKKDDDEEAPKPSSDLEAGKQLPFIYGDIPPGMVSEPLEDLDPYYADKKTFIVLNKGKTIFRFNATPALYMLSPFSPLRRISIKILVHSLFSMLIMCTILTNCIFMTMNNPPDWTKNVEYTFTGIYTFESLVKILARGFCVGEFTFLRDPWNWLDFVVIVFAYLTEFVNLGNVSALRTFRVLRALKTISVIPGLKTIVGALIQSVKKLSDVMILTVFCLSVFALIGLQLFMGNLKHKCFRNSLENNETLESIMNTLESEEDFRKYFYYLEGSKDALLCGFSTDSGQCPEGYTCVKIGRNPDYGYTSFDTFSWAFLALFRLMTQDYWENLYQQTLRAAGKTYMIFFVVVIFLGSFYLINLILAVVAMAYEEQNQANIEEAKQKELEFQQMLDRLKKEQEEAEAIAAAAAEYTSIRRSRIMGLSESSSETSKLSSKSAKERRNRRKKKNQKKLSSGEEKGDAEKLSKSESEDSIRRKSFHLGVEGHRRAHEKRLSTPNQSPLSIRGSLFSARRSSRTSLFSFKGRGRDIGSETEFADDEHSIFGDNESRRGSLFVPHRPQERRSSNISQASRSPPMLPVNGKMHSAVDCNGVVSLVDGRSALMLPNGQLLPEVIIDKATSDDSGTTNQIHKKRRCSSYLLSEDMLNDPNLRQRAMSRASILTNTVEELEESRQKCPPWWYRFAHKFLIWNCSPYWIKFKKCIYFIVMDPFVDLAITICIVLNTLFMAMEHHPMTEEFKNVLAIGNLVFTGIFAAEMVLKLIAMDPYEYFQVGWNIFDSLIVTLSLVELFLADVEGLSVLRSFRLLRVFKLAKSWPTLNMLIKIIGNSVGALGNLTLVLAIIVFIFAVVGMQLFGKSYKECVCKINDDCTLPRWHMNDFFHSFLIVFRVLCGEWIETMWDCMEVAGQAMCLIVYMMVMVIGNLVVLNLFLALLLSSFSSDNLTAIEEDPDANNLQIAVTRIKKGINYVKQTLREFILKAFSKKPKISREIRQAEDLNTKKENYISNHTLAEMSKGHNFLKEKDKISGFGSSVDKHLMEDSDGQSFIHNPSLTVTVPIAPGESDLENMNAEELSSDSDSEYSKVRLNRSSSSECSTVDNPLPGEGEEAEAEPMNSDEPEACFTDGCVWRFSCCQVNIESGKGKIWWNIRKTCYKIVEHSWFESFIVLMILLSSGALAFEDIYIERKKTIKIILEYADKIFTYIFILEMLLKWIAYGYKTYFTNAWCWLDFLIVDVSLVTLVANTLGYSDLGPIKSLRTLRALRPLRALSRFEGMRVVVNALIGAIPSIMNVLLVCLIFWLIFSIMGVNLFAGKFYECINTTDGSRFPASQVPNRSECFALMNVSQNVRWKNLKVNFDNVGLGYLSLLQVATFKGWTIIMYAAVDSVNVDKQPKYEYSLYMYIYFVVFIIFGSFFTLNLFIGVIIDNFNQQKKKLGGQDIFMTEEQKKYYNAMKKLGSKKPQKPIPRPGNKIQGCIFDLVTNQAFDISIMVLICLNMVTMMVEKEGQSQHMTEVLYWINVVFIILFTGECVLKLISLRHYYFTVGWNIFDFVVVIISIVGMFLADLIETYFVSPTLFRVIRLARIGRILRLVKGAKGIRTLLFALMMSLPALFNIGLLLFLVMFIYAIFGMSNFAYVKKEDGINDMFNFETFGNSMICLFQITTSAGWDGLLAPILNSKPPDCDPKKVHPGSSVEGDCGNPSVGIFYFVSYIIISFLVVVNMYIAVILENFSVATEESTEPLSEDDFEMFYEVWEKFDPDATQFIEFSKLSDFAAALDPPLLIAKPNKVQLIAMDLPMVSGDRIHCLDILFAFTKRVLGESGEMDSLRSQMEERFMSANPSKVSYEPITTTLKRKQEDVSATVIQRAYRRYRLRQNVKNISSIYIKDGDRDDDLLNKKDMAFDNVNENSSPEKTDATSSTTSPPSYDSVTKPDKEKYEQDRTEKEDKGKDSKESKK

Q: Which IC50 does the source give for `O=C(NCC(=O)N1CCS(=O)(=O)C1)c1ccc2cc(Oc3ccc(C(F)(F)F)cn3)ccc2n1` [Example 568, N-[2-(1,1-dioxido-1,3-thiazolidin-3-yl)-2-oxoethyl]-6-{[5-(trifluoromethyl)pyridin-2-yl]oxy}quinoline-2-carboxamide] here?
A: 3.26 µM

Q: `COC1CN(C(=O)CNC(=O)c2ccc3cc(Oc4ccc(C(F)(F)F)cn4)ccc3n2)C1` [Example 569, N-[2-(3-methoxyazetidin-1-yl)-2-oxoethyl]-6-{[5-(trifluoromethyl)pyridin-2-yl]oxy}quinoline-2-carboxamide] was tested. Which IC50 did it give?
A: 1.21 µM

Q: How did the IC50 turn out when `O=C(NCC(=O)N1CCC[C@@H]1CO)c1ccc2cc(Oc3ccc(C(F)(F)F)cn3)ccc2n1` [Example 570, N-{2-[(2R)-2-(hydroxymethyl)pyrrolidin-1-yl]-2-oxoethyl}-6-{[5-(trifluoromethyl)pyridin-2-yl]oxy}quinoline-2-carboxamide] was run?
A: 0.977 µM

Q: Which IC50 does the source give for `O=C1CCN(C(=O)CNC(=O)c2ccc3cc(Oc4ccc(C(F)(F)F)cn4)ccc3n2)C1` [Example 572, N-[2-oxo-2-(3-oxopyrrolidin-1-yl)ethyl]-6-{[5-(trifluoromethyl)pyridin-2-yl]oxy}quinoline-2-carboxamide] here?
A: 2.7 µM

Q: How did the IC50 turn out when `O=C(NCC(=O)N1CCC(F)C1)c1ccc2cc(Oc3ccc(C(F)(F)F)cn3)ccc2n1` (centres unmarked) [Example 573, N-[2-(3-fluoropyrrolidin-1-yl)-2-oxoethyl]-6-{[5-(trifluoromethyl)pyridin-2-yl]oxy}quinoline-2-carboxamide] was run?
A: 0.987 µM

Q: With `O=C(NC1CC(N2CCOCC2)C1)c1ccc2cc(Oc3ccc(C(F)(F)F)nc3)ccc2n1` (centres unmarked) [Example 574, N-[3-(morpholin-4-yl)cyclobutyl]-6-{[6-(trifluoromethyl)pyridin-3-yl]oxy}quinoline-2-carboxamide] as the compound, how does the IC50 read?
A: 0.295 µM

Q: `O=C(c1ccc2cc(Oc3ccc(C(F)F)cn3)ccc2n1)N1CC[C@@H](F)C1` [Example 575, (6-{[5-(difluoromethyl)pyridin-2-yl]oxy}quinolin-2-yl) [(3R)-3-fluoropyrrolidin-1-yl]methanone] was tested. Which IC50 did it give?
A: 12.1 µM

Q: Which IC50 does the source give for `O=C(c1ccc2cc(Oc3ccc(C(F)F)cn3)ccc2n1)N1CC[C@H](F)C1` [Example 576, (6-{[5-(difluoromethyl)pyridin-2-yl]oxy}quinolin-2-yl) [(3S)-3-fluoropyrrolidin-1-yl]methanone] here?
A: 10.1 µM

Q: For `CS(=O)(=O)NC(=O)c1ccc2cc(Oc3ccc(C(F)(F)F)cn3)ccc2n1` [Example 577, N-(methylsulfonyl)-6-{[5-(trifluoromethyl)pyridin-2-yl]oxy}quinoline-2-carboxamide], which IC50 is on record?
A: 10.1 µM

Q: Which IC50 does the source give for `CC1(O)CC(NC(=O)c2ccc3cc(Oc4ccc(C(F)(F)F)nc4)ccc3n2)C1` (centres unmarked) [Example 578, N-(3-hydroxy-3-methylcyclobutyl)-6-{[6-(trifluoromethyl)pyridin-3-yl]oxy}quinoline-2-carboxamide] here?
A: 1.07 µM

Q: How did the IC50 turn out when `CC(NC(=O)c1ccc2cc(Oc3ccc(C(F)(F)F)cn3)ccc2n1)C(=O)N(C)C` (centres unmarked) [Example 579, N-[1-(dimethylamino)-1-oxopropan-2-yl]-6-{[5-(trifluoromethyl)pyridin-2-yl]oxy}quinoline-2-carboxamide] was run?
A: 1.69 µM

Q: `O=C(N[C@@H]1CCNC[C@H]1F)c1ccc2cc(Oc3ccc(C(F)(F)F)cn3)ccc2n1` [Example 584, N-[(3R,4R)-3-fluoropiperidin-4-yl]-6-{[5-(trifluoromethyl)pyridin-2-yl]oxy}quinoline-2-carboxamide] was tested. Which IC50 did it give?
A: 0.304 µM

Q: Which IC50 does the source give for `O=C(c1ccc2cc(Oc3ccc(C(F)F)cn3)ccc2n1)N1CCN[C@H](CO)C1` [Example 585, (6-{[5-(difluoromethyl)pyridin-2-yl]oxy}quinolin-2-yl) [(3S)-3-(hydroxymethyl)piperazin-1-yl]methanone] here?
A: > 20 µM

Q: `CN1CCC(NC(=O)c2ccc3cc(Oc4ccc(C(F)(F)F)cn4)ccc3n2)C1=O` (centres unmarked) [Example 587, N-(1-methyl-2-oxopyrrolidin-3-yl)-6-{[5-(trifluoromethyl)pyridin-2-yl]oxy}quinoline-2-carboxamide] was tested. Which IC50 did it give?
A: 1.02 µM

Q: Which IC50 does the source give for `COC(C)CNC(=O)c1ccc2cc(Oc3ccc(C(F)(F)F)cn3)ccc2n1` (centres unmarked) [Example 590, N-(2-methoxypropyl)-6-{[5-(trifluoromethyl)pyridin-2-yl]oxy}quinoline-2-carboxamide] here?
A: 1 µM

Q: Which IC50 does the source give for `COC1(CNC(=O)c2ccc3cc(Oc4ccc(C(F)(F)F)cn4)ccc3n2)CCC1` [Example 591, N-[(1-methoxycyclobutyl)methyl]-6-{[5-(trifluoromethyl)pyridin-2-yl]oxy}quinoline-2-carboxamide] here?
A: 0.737 µM

Q: How did the IC50 turn out when `O=C1CC(NC(=O)c2ccc3cc(Oc4ccc(C(F)F)cn4)ccc3n2)C1` [Example 592, 6-{[5-(difluoromethyl)pyridin-2-yl]oxy}-N-(3-oxocyclobutyl)quinoline-2-carboxamide] was run?
A: 3.44 µM

Same assay, conditions: read-out: FRET-Membrane Potential Nav1.7 IC50

Q: Which IC50 does the source give for `CC1(O)CN(C(=O)CNC(=O)c2ccc3cc(Oc4ccc(C(F)(F)F)cn4)ccc3n2)C1` [Example 567, N-[2-(3-hydroxy-3-methylazetidin-1-yl)-2-oxoethyl]-6-{[5-(trifluoromethyl)pyridin-2-yl]oxy}quinoline-2-carboxamide] here?
A: 3.28 µM

Q: Which IC50 does the source give for `O=C(NCC(=O)N1CCC1)c1ccc2cc(Oc3ccc(C(F)(F)F)cn3)ccc2n1` [Example 571, N-[2-(azetidin-1-yl)-2-oxoethyl]-6-{[5-(trifluoromethyl)pyridin-2-yl]oxy}quinoline-2-carboxamide] here?
A: 0.448 µM

Q: Which IC50 does the source give for `O=C(c1ccc2cc(Oc3ccc(C(F)(F)F)cn3)ccc2n1)N1CCC[C@@H](O)C1` [Example 581, [(3R)-3-hydroxypiperidin-1-yl](6-{[5-(trifluoromethyl)pyridin-2-yl]oxy}quinolin-2-yl)methanone] here?
A: 12.6 µM

Q: How did the IC50 turn out when `O=C(c1ccc2cc(Oc3ccc(C(F)(F)F)cn3)ccc2n1)N1CCC[C@H](O)C1` [Example 582, [(3S)-3-hydroxypiperidin-1-yl](6-{[5-(trifluoromethyl)pyridin-2-yl]oxy}quinolin-2-yl)methanone] was run?
A: 10.3 µM

Q: With `N[C@@H]1CCN(C(=O)c2ccc3cc(Oc4ccc(C(F)(F)F)cn4)ccc3n2)C[C@H]1F` [Example 583, [(3R,4R)-4-amino-3-fluoropiperidin-1-yl](6-{[5-(trifluoromethyl)pyridin-2-yl]oxy}quinolin-2-yl)methanone] as the compound, how does the IC50 read?
A: 0.96 µM

Q: How did the IC50 turn out when `O=C(c1ccc2cc(Oc3ccc(C(F)(F)F)cn3)ccc2n1)N1CC(N2CC[C@H](F)C2)C1` [Example 586, {3-[(3S)-3-fluoropyrrolidin-1-yl]azetidin-1-yl}(6-{[5-(trifluoromethyl)pyridin-2-yl]oxy}quinolin-2-yl)methanone] was run?
A: 1.8 µM

Q: `CO[C@@H]1CCN(C(=O)c2ccc3cc(Oc4ccc(C(F)(F)F)cn4)ccc3n2)C1` [Example 588, [(3R)-3-methoxypyrrolidin-1-yl](6-{[5-(trifluoromethyl)pyridin-2-yl]oxy}quinolin-2-yl)methanone] was tested. Which IC50 did it give?
A: 3.64 µM

Q: With `CO[C@H]1CCN(C(=O)c2ccc3cc(Oc4ccc(C(F)(F)F)cn4)ccc3n2)C1` [Example 589, [(3S)-3-methoxypyrrolidin-1-yl](6-{[5-(trifluoromethyl)pyridin-2-yl]oxy}quinolin-2-yl)methanone] as the compound, how does the IC50 read?
A: 4.07 µM

Q: Which IC50 does the source give for `COC[C@@H]1CN(C(=O)c2ccc3cc(Oc4ccc(C(F)(F)F)cn4)ccc3n2)CCN1` [Example 593, [(3S)-3-(methoxymethyl)piperazin-1-yl](6-{[5-(trifluoromethyl)pyridin-2-yl]oxy}quinolin-2-yl)methanone] here?
A: 0.238 µM
